Read-outs that look alike come from different tables or passages of the source.
Legend:
[1] = target: T1, human Gcg receptor (hGcgR) (Homo sapiens, UniProt P47871); assay: [125I]-Glucagon binding, SPA with membranes of HEK293 cells expressing hGcgR
T1 construct: expressed in transfected cells; crude membranes

[2] = target: T2, human GLP-1 receptor (hGLP-1R) (Homo sapiens, UniProt P43220); assay: [125I]-GLP-1 binding, SPA with membranes of HEK293 cells expressing hGLP-1R
T2 construct: expressed in transfected cells; crude membranes
T2 sequence (P43220 24-463): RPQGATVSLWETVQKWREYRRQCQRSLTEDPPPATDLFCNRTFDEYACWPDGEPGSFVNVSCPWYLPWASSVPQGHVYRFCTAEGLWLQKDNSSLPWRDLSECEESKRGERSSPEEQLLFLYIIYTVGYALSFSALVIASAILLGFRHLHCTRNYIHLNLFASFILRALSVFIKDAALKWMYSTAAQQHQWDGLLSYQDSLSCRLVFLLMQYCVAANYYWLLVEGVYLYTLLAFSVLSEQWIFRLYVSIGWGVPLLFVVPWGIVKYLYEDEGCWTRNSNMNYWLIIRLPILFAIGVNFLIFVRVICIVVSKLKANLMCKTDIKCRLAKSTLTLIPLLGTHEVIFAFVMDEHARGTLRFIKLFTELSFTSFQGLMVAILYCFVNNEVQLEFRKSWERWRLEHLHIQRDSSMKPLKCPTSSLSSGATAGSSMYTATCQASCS

[3] = target: T3, hGIPR (Homo sapiens, UniProt P48546); assay: Functional cAMP formation (HTRF) in HEK-293 clonal cells expressing hGIPR, 0.1% bovine casein, without or with 1.0% human serum albumin; format: cell-based; details: for Emax: percent of maximal response to GIP(1-42)NH2; for EC50: cAMP
T3 construct: expressed in transfected cells
T3 sequence (P48546 22-466): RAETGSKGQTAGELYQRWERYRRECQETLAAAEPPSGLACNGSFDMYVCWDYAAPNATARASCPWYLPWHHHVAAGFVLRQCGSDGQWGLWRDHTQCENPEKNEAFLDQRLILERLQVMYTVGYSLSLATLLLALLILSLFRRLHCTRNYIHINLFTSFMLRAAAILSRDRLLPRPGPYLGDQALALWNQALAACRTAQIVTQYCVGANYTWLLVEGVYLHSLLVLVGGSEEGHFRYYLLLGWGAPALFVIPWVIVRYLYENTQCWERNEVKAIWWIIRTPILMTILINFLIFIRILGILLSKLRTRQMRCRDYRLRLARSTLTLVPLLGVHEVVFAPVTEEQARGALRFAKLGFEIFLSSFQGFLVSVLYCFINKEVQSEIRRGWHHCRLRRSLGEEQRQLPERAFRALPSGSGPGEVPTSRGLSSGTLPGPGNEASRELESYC
Outline: (§1)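 Readings of the HTRF 665/620 nm ratio, which falls as cAMP rises, were converted to nM cAMP using a standard curve after 30 min peptide exposure at 37° C.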

[4] = target: T4, hGCGR (Homo sapiens, UniProt P47871); assay: Functional cAMP formation (HTRF) in HEK-293 clonal cells expressing hGCGR, 0.1% bovine casein, without or with 1.0% human serum albumin; format: cell-based; details: cAMP, 37° C.
T4 construct: expressed in transfected cells
T4 sequence (P47871 26-477): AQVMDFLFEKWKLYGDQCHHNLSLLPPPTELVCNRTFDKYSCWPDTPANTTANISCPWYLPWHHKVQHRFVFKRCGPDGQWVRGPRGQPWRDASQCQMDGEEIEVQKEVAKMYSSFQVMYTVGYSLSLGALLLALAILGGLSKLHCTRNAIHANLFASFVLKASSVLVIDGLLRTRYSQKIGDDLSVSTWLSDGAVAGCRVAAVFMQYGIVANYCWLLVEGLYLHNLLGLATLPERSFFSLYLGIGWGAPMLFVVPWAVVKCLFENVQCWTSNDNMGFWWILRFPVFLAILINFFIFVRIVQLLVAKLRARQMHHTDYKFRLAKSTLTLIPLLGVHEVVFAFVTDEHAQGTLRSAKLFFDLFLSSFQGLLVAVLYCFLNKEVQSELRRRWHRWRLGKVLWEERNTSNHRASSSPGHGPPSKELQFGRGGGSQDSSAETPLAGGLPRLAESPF
Outline: as §1

[5] = target: hGLP-1R (Homo sapiens, UniProt P43220); assay: Functional cAMP formation (HTRF) in HEK-293 clonal cells expressing hGLP-1R, 0.1% bovine casein, without or with 1.0% human serum albumin; format: cell-based; set-up: expressed in transfected cells; details: for Emax: percent of maximal response to GLP-1(7-36)NH2, arithmetic mean; for EC50: cAMP, 0.1% bovine casein (no human serum albumin), geometric mean
Chain of hGLP-1R (P43220 24-463): as the sequence (P43220 24-463) above
Outline: as §1

T1 sequence (P47871 26-477): as the sequence (P47871 26-477) above

SMILES | Ki ([1]; human GcgR, geometric mean (SEM, n), read-out: Binding Affinity Ki, nM (SEM, n) hGCGR) [nM] | Ki ([2]; human GLP-1R, geometric mean (SEM, n), read-out: Binding Affinity Ki, nM (SEM, n) hGLP-1R) [nM] | Emax ([3]; HEK293, cAMP, 37° C., 0.1% bovine casein and 1.0% human serum albumin, read-out: hGIPR Emax, % ± SEM) [%] | EC50 ([3]; 37° C., 0.1% bovine casein (no human serum albumin), geometric mean, read-out: hGIPR EC50, nM (SEM, n)) [nM] | EC50 ([4]; 0.1% bovine casein (no human serum albumin), geometric mean, read-out: hGCGR EC50, nM (SEM, n)) [nM] | EC50 ([4]; 0.1% bovine casein and 1.0% human serum albumin, geometric mean (SEM, n), read-out: hGCGR EC50, nM (SEM, n)) [nM] | Emax ([5]; HEK293, cAMP, 37° C., 0.1% bovine casein, read-out: hGLP-1R Emax, % ± SEM) [%] | EC50 ([5]; 37° C., read-out: hGLP-1R EC50, nM (SEM, n)) [nM] | Ki [1] [nM] | Ki [2] [nM] | Emax ([3]; HEK293, read-out: hGIPR Emax, % ± SEM, cAMP, 37° C., 0.1% bovine casein and 1.0% human serum albumin) [%] | EC50 ([3]; hGIPR EC50, nM (SEM, n), 37° C., 0.1% bovine casein (no human serum albumin), geometric mean) [nM] | EC50 ([3]; hGIPR EC50, nM (SEM, n), 37° C., 0.1% bovine casein and 1.0% human serum albumin, geometric mean (SEM, n)) [nM] | EC50 ([4]; hGCGR EC50, nM (SEM, n), 0.1% bovine casein (no human serum albumin), geometric mean) [nM] | EC50 ([4]; hGCGR EC50, nM (SEM, n), 0.1% bovine casein and 1.0% human serum albumin, geometric mean (SEM, n)) [nM] | Emax ([5]; HEK293, read-out: hGLP-1R Emax, % ± SEM, cAMP, 37° C., 0.1% bovine casein) [%] | EC50 ([5]; hGLP-1R EC50, nM (SEM, n), 37° C.) [nM]
CC[C@H](C)[C@H](NC(=O)[C@H](CC(C)C)NC(=O)[C@](C)(Cc1ccc(O)cc1)NC(=O)[C@H](CCCCNC(=O)COCCOCCNC(=O)[C@H]1CC[C@H](CNC(=O)CC[C@H](NC(=O)CCCCCCCCCCCCC(=O)O)C(=O)O)CC1)NC(=O)[C@@H](NC(=O)[C@H](Cc1ccccc1)NC(=O)[C@H](CCCN)NC(=O)C(C)(C)NC(=O)[C@H](CCC(N)=O)NC(=O)[C@H](C)NC(=O)[C@H](CCC(N)=O)NC(=O)[C@H](CCCN)NC(=O)[C@H](CC(=O)O)NC(=O)[C@H](CC(C)C)NC(=O)[C@](C)(CC(C)C)NC(=O)[C@@H](NC(=O)C(C)(C)NC(=O)[C@H](Cc1ccncc1)NC(=O)[C@H](CC(=O)O)NC(=O)[C@H](CO)NC(=O)[C@@H](NC(=O)[C@](C)(Cc1ccccc1F)NC(=O)[C@@H](NC(=O)CNC(=O)[C@H](CCC(=O)O)NC(=O)C(C)(C)NC(=O)[C@@H](N)Cc1ccc(O)cc1)[C@@H](C)O)[C@@H](C)O)[C@@H](C)CC)[C@@H](C)CC)C(=O)N[C@@H](CCCCNC(=O)COCCOCCNC(=O)[C@H]1CC[C@H](CNC(=O)CC[C@H](NC(=O)CCCCCCCCCCCCC(=O)O)C(=O)O)CC1)C(=O)NCC(=O)NCC(=O)N1CCC[C@H]1C(=O)N[C@@H](CO)C(=O)N[C@@H](CO)C(=O)NCC(=O)N[C@@H](C)C(=O)N1CCC[C@H]1C(=O)N1CCC[C@H]1C(=O)N1CCC[C@H]1C(=O)N[C@@H](CO)C(N)=O [Example 472] | 258 | 0.254 | 76.3 | 0.0131 | > 9950 | > 9950 | 118 | 0.154 |  |  |  |  |  |  |  |  | 
CC[C@H](C)[C@H](NC(=O)[C@H](CC(C)C)NC(=O)[C@](C)(Cc1ccc(O)cc1)NC(=O)[C@H](CCCCNC(=O)COCCOCCNC(=O)COCCOCCNC(=O)CC[C@H](NC(=O)CC[C@H](NC(=O)CCCCCCCCCOc1ccc(C(=O)O)cc1)C(=O)O)C(=O)O)NC(=O)[C@@H](NC(=O)[C@H](Cc1ccccc1)NC(=O)[C@H](CCCN)NC(=O)C(C)(C)NC(=O)[C@H](CCC(N)=O)NC(=O)[C@H](C)NC(=O)[C@H](CCC(N)=O)NC(=O)[C@H](CCCN)NC(=O)[C@H](CC(=O)O)NC(=O)[C@H](CC(C)C)NC(=O)[C@](C)(CC(C)C)NC(=O)[C@@H](NC(=O)C(C)(C)NC(=O)[C@H](Cc1ccncc1)NC(=O)[C@H](CC(=O)O)NC(=O)[C@H](CO)NC(=O)[C@@H](NC(=O)[C@](C)(Cc1ccccc1F)NC(=O)[C@@H](NC(=O)CNC(=O)[C@H](CCC(=O)O)NC(=O)C(C)(C)NC(=O)[C@@H](N)Cc1ccc(O)cc1)[C@@H](C)O)[C@@H](C)O)[C@@H](C)CC)[C@@H](C)CC)C(=O)N[C@@H](CCCCNC(=O)COCCOCCNC(=O)COCCOCCNC(=O)CC[C@H](NC(=O)CC[C@H](NC(=O)CCCCCCCCCOc1ccc(C(=O)O)cc1)C(=O)O)C(=O)O)C(=O)NCC(=O)NCC(=O)N1CCC[C@H]1C(=O)N[C@@H](CO)C(=O)N[C@@H](CO)C(=O)NCC(=O)N[C@@H](C)C(=O)N1CCC[C@H]1C(=O)N1CCC[C@H]1C(=O)N1CCC[C@H]1C(=O)N[C@@H](CO)C(N)=O [Example 475] |  |  |  |  |  |  |  |  | 139 | 0.189 | 84.6 | 0.012 | 0.211 | > 9950 | > 9950 | 116 | 0.143
